Laboratory results as given in patent US20080234226A1, “Use Of Iron(III) Complex Compounds For The Preparation Of A Medicament For Oral Treatment Of Iron Deficiency States In Patients With Chronic Inflammatory Bowel Disease” (VIFOR (INTERNATIONAL) AG, priority 2005, published 2008).
Read-outs that look alike come from different tables or passages of the source. Marks after values point to notes of the source that are not given here. Values belong to the compound of their own block, whether it stands above or below them.

Legend:
[1] = test system: patients with chronic inflammatory bowel disease; experiment: Markers of oxidative stress (plasma, urine) before and after 14 days oral iron therapy; conditions: for U-8-iso-PGF2α: urine
Description: (§1) Analysis of the blood, urine and stool and the clinical evaluation of the disease were carried out on day 1 and 15.
(§2) The tablets were taken in accordance with the manufacturer's recommendations. Patient compliance was defined as the consumption of the tablets handed out, 80% being regarded as satisfactory.
(§3) Blood samples were taken, after fasting during the night, on the morning of day 1 and day 15.
Urine samples were collected on the morning of day 1 and day 15 and analysed for creatinine. Butyl-hydroxy-toluene (BHT) was added to 2 ml urine to a final concentration of 20 mM. The samples were then stored at −80° C. until analysed for urine 8-isoprostaglandin F2α (8-iso-PGF2α).
(§4) The values were analysed using the Wilcoxon test for pair differences, and the median and range are stated. The comparison of ratios was evaluated with the Fisher Exact test. P values of less than 0.05 are considered to be statistically significant. The data were analysed using the GraphPad Prism 4 for Windows statistics software package (GraphPad Software, Inc., San Diego, USA).

[2] = test system: patients with chronic inflammatory bowel disease
Description: as §1, §2, §3
as §4, with “P values of less than 0.05 are considered to be statistically significant.” left out

[3] = test system: patients with chronic inflammatory bowel disease; experiment: Clinical disease activity, symptoms, compliance and tolerability during oral iron therapy; type: in vivo, human; conditions: for total number of defecations per week: median (range)
Description: The status of the clinical disease was recorded before (day 1) and after (day 15) the iron therapy. The clinical disease activity was evaluated in patients with Crohn's disease with the “Harvey-Bradshaw Simple Index of Crohn's Disease Activity” (Harvey, R F., Bradshaw, J M., Lancet, 1980; 1:514). The Harvey-Bradshaw Simple Index is based on 5 parameters: general well-being, abdominal pain, stool frequency, abdominal mass and extraintestinal complications. The maximum score is 25 and scores of ≧5 indicate active Crohn's disease.
In patients with colitis ulcerosa, the “Simple Clinical Colitis Activity Index” was recorded (Walmsley, R S., Ayres, R C., Pounder, R E., Allan, R N., Gut 1998; 43; 29-32). The Simple Clinical Colitis Activity Index is based on 6 parameters: general well-being, stool frequency during the day and during the night, urgency of defecation, blood in the stool and extraintestinal complications. The maximum score is 20 and values of ≧4 indicate active colitis ulcerosa.
The Harvey-Bradshaw Simple Index and the Simple Clinical Colitis Activity Index are the same in respect of structure and the clinical significance of a given change in the scores. In order to allow the results of patients with Crohn's disease and colitis ulcerosa to be considered together, the activity scores were calculated as the actual score divided by the maximum score.
All the patients completed the particular Crohn's Disease Activity Index (CDAI) diary card (Best, W R., Becktel, J M., Singleton, J W., Kern, F. Jr., Gastroenterology 1976; 70:439-444) in the week before the start of the iron therapy and during the two weeks of iron therapy. The CDAI diary card comprises daily recording of general well-being, abdominal pain and the number of liquid or very soft stools. The total of seven daily records gives a score for each symptom. The higher the score, the more the patient is adversely affected. The medicament was administered during the study for 14 days and the mean for the two weeks is therefore used for the analysis. The patients also documented the occurrence of nausea before and during the iron therapy.
Patients who discontinued treatment with the medicament because of a deterioration in the symptoms were included in the analysis of the clinical disease activity and the symptom scores. Their disease activity scores were increased by two points, and the symptom scores were increased by one point per day.

white mice = conditions: cited from earlier work
[4] = mean of differences after vs before 14 days treatment
[5] = plasma, after 14 days oral treatment, mean (SEM)
[6] = plasma, before treatment, mean (SEM)
[7] = after 14 days oral treatment, mean (SEM)
[8] = serum, after 14 days oral treatment, mean (SEM)
[9] = serum, before treatment, mean (SEM)

Compound: O=S(=O)([O-])[O-].[Fe+2] [Iron(II) sulfate, iron(II) sulfate]
change in plasma MDA values [1, 4]: 95 nmol/L
change in urine iso-PGF2α values [1, 4]: 194 pg/mg creatinine
P-malondialdehyde ([1]; plasma, after 14 days oral treatment (day 15), mean (SEM)): 395 (25)* nmol/l
P-beta-carotene [1, 5]: 0.67 (0.10) μmol/l
P-cysteine [1, 5]: 199 (13) μmol/l
P-cysteinyl-glycine [1, 5]: 16.6 (1.2) μmol/l
P-glutathione [1, 5]: 5.08 (0.54) μmol/l
P-homocysteine [1, 5]: 4.58 (0.47) μmol/l
P-vitamin A [1, 5]: 1.8 (0.2) μmol/l
P-vitamin C [1, 5]: 58.6 (5.4) μmol/l
P-vitamin E [1, 5]: 29.3 (1.5) μmol/l
P-malondialdehyde ([1]; plasma, before treatment (day 1), mean (SEM)): 294 (25) nmol/l
P-beta-carotene [1, 6]: 0.67 (0.09) μmol/l
P-cysteine [1, 6]: 203 (11) μmol/l
P-cysteinyl-glycine [1, 6]: 16.7 (1.1) μmol/l
P-glutathione [1, 6]: 5.05 (0.48) μmol/l
P-homocysteine [1, 6]: 4.87 (0.59) μmol/l
P-vitamin A [1, 6]: 1.7 (0.2) μmol/l
P-vitamin C [1, 6]: 60.9 (6.0) μmol/l
P-vitamin E [1, 6]: 30.2 (1.8) μmol/l
U-8-iso-PGF2α ([1]; after 14 days oral treatment (day 15), mean (SEM)): 629 (124) pg/mg creatinine
U-8-iso-PGF2α ([1]; before treatment (day 1), mean (SEM)): 417 (46) pg/mg creatinine
B-ESR ([2]; in vivo): 11 (2) mm/h
B-erythrocyte count ([2]; in vivo): 4.8 (0.1) 10^12/l
B-haematocrit ([2]; in vivo): 41 (1) %
B-haemoglobin ([2]; in vivo): 13.1 (0.4) g/dl
B-leukocyte count ([2]; in vivo): 6.5 (0.5) 10^9/l
B-platelet count ([2]; in vivo): 324 (23) 10^9/l
B-reticulocyte count ([2]; in vivo): 0.068 (0.006) 10^12/l
Hypochromic red cells (HYPO) ([2]; in vivo): 10.4 (3.6) %
MCH ([2]; in vivo): 27 (0.8) pg
MCHC ([2]; in vivo): 31.8 (0.4) g/dl
MCV ([2]; in vivo): 86 (1.6) fl
Reticulocyte haemoglobin (CHr) ([2]; in vivo): 29.3 (0.8) pg
S-CRP ([2]; in vivo): 7 (2) mg/l
S-ferritin ([2]; in vivo): 13 (2) μg/l
S-iron ([2]; in vivo): 11.1 (2.0) μmol/l
S-total iron binding capacity ([2]; in vivo): 81 (2) μmol/l
decrease in the hypochromic red cells ([2]; in vivo): −2.5%
decrease in the serum total iron binding capacity ([2]; in vivo): -7 µmol/L
increase in blood reticulocyte count ([2]; in vivo): 1.6e+10 L⁻¹
increase in s-ferritin ([2]; in vivo): 12 µg/L
increase in the reticulocyte haemoglobin ([2]; in vivo): 1.9 pg
increase of blood haemoglobin ([2]; in vivo): Neither iron(II) sulfate nor iron(III)-polymaltose complex increased the blood haemoglobin
B-ESR ([2]; in vivo, po): 10 (2) mm/h
B-erythrocyte count ([2]; in vivo, po): 4.8 (0.1) 10^12/l
B-haematocrit ([2]; in vivo, po): 42 (1)* %
B-haemoglobin ([2]; in vivo, po): 13.3 (0.3) g/dl
B-leukocyte count ([2]; in vivo, po): 6.3 (0.4) 10^9/l
B-platelet count ([2]; in vivo, po): 306 (21) 10^9/l
B-reticulocyte count ([2]; in vivo, po): 0.084 (0.007) 10^12/l
Hypochromic red cells (HYPO) ([2]; in vivo, po): 8.8 (3.2)* %
MCH ([2]; in vivo, po): 28 (0.8)*# pg
MCHC ([2]; in vivo, po): 32.0 (0.3) g/dl
MCV ([2]; in vivo, po): 87 (1.3)* fl
Reticulocyte haemoglobin (CHr) ([2]; in vivo, po): 31.1 (0.7)* pg
S-CRP ([2]; in vivo, po): 6 (2) mg/l
S-ferritin ([2]; in vivo, po): 25 (3)*# μg/l
S-iron ([2]; in vivo, po): 14.2 (2.2) μmol/l
S-total iron binding capacity ([2]; in vivo, po): 74 (2)*# μmol/l
influence on general wellbeing or abdominal pain score ([3]; CDAI diary card): Neither iron(II) sulfate nor iron(III)-polymaltose complex had an influence
total number of defecations per week ([3]; before treatment): 19 (7-106)
change of clinical disease activity indices ([3]; day 15 vs day 1): Neither the treatment with iron(II) sulfate (p=0.45) nor the treatment with iron(III)-polymaltose complex (p=0.80) substantially changed the clinical disease activity indices
total number of defecations per week ([3]; during the treatment): 24 (7-55)
patients who discontinued the treatment (intolerable bowel movements, abdominal pain and nausea) ([3]; of n=21 iron(II) sulfate, n=20 iron(III)-polymaltose complex): Three patients
Increased nausea reported ([3]; patients reporting / patients treated): 9/21
LD50 (white mice): 230 mg iron/kg

P-beta-carotene ([1]; in vivo): 0.59 (0.13) μmol/l
P-cysteinyl-glycine ([1]; in vivo): 18.7 (0.9) μmol/l
P-glutathione ([1]; in vivo): 5.22 (0.30) μmol/l
P-homocysteine ([1]; in vivo): 6.53 (1.16) μmol/l
P-malondialdehyde ([1]; in vivo): 275 (21) nmol/l
P-vitamin A ([1]; in vivo): 1.6 (0.1) μmol/l
P-vitamin E ([1]; in vivo): 29.3 (1.6) μmol/l
change in plasma MDA values ([1]; in vivo): did not significantly change
change in urine iso-PGF2α values ([1]; in vivo): did not significantly change
P-beta-carotene ([1]; in vivo, po): 0.57 (0.09) μmol/l
P-cysteinyl-glycine ([1]; in vivo, po): 18.5 (1.1) μmol/l
P-glutathione ([1]; in vivo, po): 5.43 (0.43) μmol/l
P-homocysteine ([1]; in vivo, po): 6.04 (0.94) μmol/l
P-malondialdehyde ([1]; in vivo, po): 300 (19) nmol/l
P-vitamin A ([1]; in vivo, po): 1.9 (0.3) μmol/l
P-vitamin E ([1]; in vivo, po): 28.3 (1.7) μmol/l
B-ESR ([2]; in vivo): 22 (3) mm/h
B-leukocyte count ([2]; in vivo): 6.9 (0.6) 10^9/l
B-platelet count ([2]; in vivo): 347 (18) 10^9/l
S-CRP ([2]; in vivo): 12 (3) mg/l
B-ESR ([2]; in vivo, po): 20 (3)* mm/h
B-leukocyte count ([2]; in vivo, po): 7.0 (0.7) 10^9/l
B-platelet count ([2]; in vivo, po): 343 (21) 10^9/l
S-CRP ([2]; in vivo, po): 11 (2) mg/l
Compound: iron(III)-polymaltose complex
increase of blood haemoglobin ([2]; 14 days treatment): Neither iron(II) sulfate nor iron(III)-polymaltose complex increased the blood haemoglobin
B-erythrocyte count [2, 7]: 4.7 (0.1) 10^12/l
B-haematocrit [2, 7]: 40 (1) %
B-reticulocyte count [2, 7]: 0.075 (0.008)* 10^12/l
Hypochromic red cells (HYPO) [2, 7]: 10.6 (2.8) %
MCH [2, 7]: 27 (0.7) pg
MCHC [2, 7]: 31.2 (0.3) g/dl
MCV [2, 7]: 85 (1.6) fl
Reticulocyte haemoglobin (CHr) [2, 7]: 29.5 (0.7) pg
B-erythrocyte count ([2]; before treatment, mean (SEM)): 4.7 (0.1) 10^12/l
B-haematocrit ([2]; before treatment, mean (SEM)): 39 (1) %
B-reticulocyte count ([2]; before treatment, mean (SEM)): 0.059 (0.006) 10^12/l
Hypochromic red cells (HYPO) ([2]; before treatment, mean (SEM)): 10.3 (3.0) %
MCH ([2]; before treatment, mean (SEM)): 27 (0.7) pg
MCHC ([2]; before treatment, mean (SEM)): 31.6 (0.3) g/dl
MCV ([2]; before treatment, mean (SEM)): 84 (1.8) fl
Reticulocyte haemoglobin (CHr) ([2]; before treatment, mean (SEM)): 29.1 (0.8) pg
B-haemoglobin ([2]; blood, after 14 days oral treatment, mean (SEM)): 12.5 (0.3) g/dl
B-haemoglobin ([2]; blood, before treatment, mean (SEM)): 12.5 (0.3) g/dl
increase in blood reticulocyte count [2, 4]: 1.6e+10 L⁻¹
S-ferritin [2, 8]: 13 (2) μg/l
S-iron [2, 8]: 8.9 (1.5) μmol/l
S-soluble transferrin receptor [2, 8]: 2.03 (0.21) mg/l
S-total iron binding capacity [2, 8]: 77 (2) μmol/l
S-ferritin [2, 9]: 13 (2) μg/l
S-iron [2, 9]: 8.8 (0.8) μmol/l
S-soluble transferrin receptor [2, 9]: 2.08 (0.24) mg/l
S-total iron binding capacity [2, 9]: 77 (2) μmol/l
Increased nausea reported ([3]; human, in vivo): 7/20
change of clinical disease activity indices ([3]; human, in vivo): Neither the treatment with iron(II) sulfate (p=0.45) nor the treatment with iron(III)-polymaltose complex (p=0.80) substantially changed the clinical disease activity indices
influence on general wellbeing or abdominal pain score ([3]; human, in vivo): Neither iron(II) sulfate nor iron(III)-polymaltose complex had an influence
patients who discontinued the treatment (intolerable bowel movements, abdominal pain and nausea) ([3]; human, in vivo): one patient
tolerability of the iron therapy ([3]; human, in vivo): good tolerability
